This is an account of results in US20120178971A1, “Process for Isolation of a Novel Compound 5,8A-DI-1-Propyl 1-Octahydronapthalen-1-(2H) One,Trachyspermum AMI (Ajowan Caraway) Seeds” (ALIGARH MUSLIM UNIVERSITY, priority 2011, published 2012).

Each structure is given as a SMILES string. In brackets after ≈: the same amount, converted by molar mass.

The subject of assay [1] is Streptococcus mutans. In words: Determination of MIC. The note with it: against Streptococcus mutans. It counts as cell-based.
Assay [2] relates to Streptococcus mutans. The assay is described as follows: Sucrose dependent cell adherence of Streptococcus mutans. The format is cell-based. The source says: FIG. 2: Inhibitory effect of the compound on the extent of sucrose dependent cell adherence of Streptococcus mutans. The % cell adherence is the relative amount (%) of adherent cells at different concentrations of the compound as compared to the cells attached in the absence of any compound. Each value is an average of triplicate assays and each bar indicates ±SD (n=3).

Assay [3] deals with Streptococcus mutans biofilm. In words: Streptococcus mutans biofilm formation. The format is cell-based. As to the method:
FIG. 3: Inhibitory effect of the compound on the biofilm formed by Streptococcus mutans. The % biofilm formed is the relative (%) of biofilm formed at different concentrations of the compound as compared to that in the absence of any compound. Each value is an average of triplicate assays and each bar indicates ±SD (n=3)
The biofilm formation was assessed using increasing concentration of the compound. […] As observed in the adherence, the inhibitory effect was also found to be in a dose dependent manner.

Assay [4] relates to Streptococcus mutans biofilm. In words: Confocal laser scanning microscopy of Streptococcus mutans biofilm. The note with it: 78.13 μ/ml, 24 h incubation. It counts as cell-based. The procedure: FIG. 4: CLSM images of Streptococccus mutans biofilm formed in the presence or absence of the compound after 24 h incubation. The results are expressed as the means ±standard deviations of triplicate assays.
The biofilm of Streptococcus mutans was analyzed under the confocal laser scanning microscope to observe the changes in its morphology as shown in FIG. 4. […] The cells in the treated sample were more spread out and dispersed. Each panel of the image is a representative view of 141.145 μm by 141.145 μm along the xy axis. The xy analysis provides the biofilm surface coverage, while the z-section analyses establish the thickness of the biofilm. The control cells have biofilms that are clumped and less spread along the xy lane, show a thickness of 19.74±0.5 μm. […] The cells wee individually scattered over the surface rather than in any arrangement.

The subject of assay [5] is Streptococcus mutans. In words: Inhibition of acid production (pH of culture medium). It counts as cell-based. As to the method:
[…] At a concentration of 78.13 μg/ml, there is maximum reduction in acid production as is evident by an increase in pH from 4.7 (control) to 7.5.

For assay [6], the system named is Streptococcus mutans. In words: Cell surface hydrophobicity of Streptococcus mutans. It counts as cell-based. The note with it: 9.76 μg/ml, compared to untreated condition. The source says: FIG. 5: Inhibitory effect of compound on the hyrdophobicity of Streptococcus mutans where all the concentrations were taken in triplicates.
It was shown that the cell surface hydrophobocity of S. mutans is affected following treatment with the compound obtained from Trachyspermum ammi as shown in figure.

The test system of assay [7] is crude GTF of Streptococcus mutans. The assay is described as follows: Inhibition of water insoluble glucan synthesis. The format is biochemical. The note with it: 4.88 μl/ml. The procedure:
FIG. 6: Inhibitory effects of the compound on insoluble glucan synthesis by crude GTF of Streptococcus mutans. The % insoluble glucan synthesis is the relative amount (%) ±SD (n=3)
The influence of different concentrations was assessed for the synthesis of insoluble glucan.

Assay [8] concerns Streptococcus mutans. In words: Inhibition of acid production (pH of culture medium). The format is cell-based. The source holds these as a separate data set.

For `CCCC1CCCC2(CCC)C(=O)CCCC12` (centres unmarked) [the compound, 5,8a-di-1 propyl-octahydronapthalen-1-(2H)-one], inhibition of growth in assay [1] (MIC) required 156 µg/mL (≈ 661 µM). This compound also registered a reduction in adherence in assay [2] (9.77 μg/ml) of 30%. In assay [2] (sucrose dependent adherence), the “least concentration to give at least 50% inhibition of adherence” value is 39.06 µg/mL. Further, the figures for the biofilm formation entry in assay [3] (78.13 μg/ml) and in assay [3] (156.25 μg/ml (MIC)) were “inhibited the biofilm formation” and “completely inhibited the biofilm formation”, respectively. In assay [4] (CLSM), the biofilm morphology result is on record as “complete absence of clumped cells”. In addition, the “thickness of the biofilm” value in assay [4] (CLSM z-section) is 12.8±0.7 µm. Moreover, the “pH ± SD (after 24 h)” value turned out to be 4.77 ± 1.69 in assay [5] (2.44 μg/ml); 4.84 ± 1.20 in assay [5] (4.88 μg/ml); 5.49 ± 1.05 in assay [5] (9.76 μg/ml); 5.62 ± 1.96 in assay [5] (19.53 μg/ml); 5.68 ± 6.78 in assay [5] (39.01 μg/ml); 6.48 ± 5.97 in assay [5] (78.13 μg/ml). The “pH ± SD (after 24 h)” value in assay [5] (156.25 μg/ml) is given as 7.55 ± 2.65. For the same compound, the cell surface hydrophobicity entry in assay [6] is recorded as “drastically reduced the cell surface hydrophobicity to more than half”. In assay [7], the “reduction in the synthesis of insoluble glucan” value amounted to 25%. Besides, the “pH ± SD (onset)” value in assay [8] (2.44 μg/ml) is given as 7.28 ± 0.09; in assay [8] (4.88 μg/ml) it was 7.24 ± 1.33; in assay [8] (9.76 μg/ml), 7.33 ± 1.11; in assay [8] (19.53 μg/ml) it was 7.38 ± 1.91; in assay [8] (39.01 μg/ml), 7.43 ± 1.13; in assay [8] (78.13 μg/ml), 7.43 ± 0.15. Further, the “pH ± SD (onset)” value in assay [8] (156.25 μg/ml) was determined as 7.38 ± 1.29.

The term MIC denotes the least concentration at which growth counts as inhibited. High values mean a less susceptible organism, low ones a more susceptible organism.
